Reference: US5741671A, “Isolation cloning and expression of transmembrane water channel aquaporin 1(AQP1)” (The Johns Hopkins University, priority 1995, dated 1998)
“Also recorded” adds a separate entry of the source.

Columns and labels:
[1] = target: T1, AQP1 (Homo sapiens, UniProt P29972); assay: Stopped-flow osmotic water permeability of AQP1 proteoliposomes; format: biochemical
T1 construct: Human erythrocytes were obtained from blood-bank units stored up to 5 weeks; from tissue; host or cells: human erythrocytes (blood-bank units; small-scale preparations from freshly drawn whole blood)
T1 sequence (P29972 2-269 limits assumed): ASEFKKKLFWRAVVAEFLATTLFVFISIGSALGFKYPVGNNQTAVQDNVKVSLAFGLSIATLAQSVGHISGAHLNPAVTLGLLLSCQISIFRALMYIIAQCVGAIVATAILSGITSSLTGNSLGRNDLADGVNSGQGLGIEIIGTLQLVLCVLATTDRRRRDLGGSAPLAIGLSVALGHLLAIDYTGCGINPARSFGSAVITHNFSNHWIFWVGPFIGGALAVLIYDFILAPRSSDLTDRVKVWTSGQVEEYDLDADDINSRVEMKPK
Excerpt: Preparation AQP1-containing proteoliposomes. Crude Escherichia coli lipid was obtained from Avanti Polar Lipids, Inc., and neutral lipid was removed by acetone/ether wash (Ambudkar & Maloney, 1986, Methods. Enzymol. 125:558-563). The purified E. coli bulk phospholipid is composed of phosphalidylethanolamine (70%), phosphatidylglycerol (15%), and cardiolipin (15%) (Chen & Wilson, […], Proc. Natl. Acad. Sci. USA 83:2652-2656). E. coli bulk phospholipid was employed since it has previously been used for functional reconstitution of several transport proteins including the glucose transporter of RBCs (Maloney & Ambudkar, 1989, Arch. Biochem. Biophys. 269:1-10; Chen et al., 1986, Proc. Natl. Acad. Sci. USA 83:2652-2656).
Highly purified AQP1 protein was incorporated into proteoliposomes by detergent dilution; control liposomes were formed in an identical manner without AQP1 protein.
Purified AQP1 was stored overnight at 0° C. or frozen for several days at -80° C. prior to reconstitution. Reconstitution into proteoliposomes was carried out in a final volume of 1 ml containing 60-90 μg of purified AQP1 protein in chromatography buffer, 9 mg of bath-sonicated E. coli phospholipid, 1.25% (w/v) octyl glucoside, and 50 mM Tris-HCl (pH 7.5). The mixture was briefly blended on a vortex mixer and incubated for 20 minutes on ice. Proteoliposomes (or liposomes prepared without protein) were formed at room temperature by rapidly injecting the mixture into 25 ml of buffer A [50 mM MOPS, pH 7.5, 150 mM N-methyl-D-glucamine (NMDG) chloride also containing 10-15 mM carboxyfluorescein, 1 mM dithiothreitol, and 0.5 mM PMSF]. For the measurement of proton permeability, proteoliposomes and liposomes were loaded with buffer B (5 mM MOPS, pH 7.5, 150 mM KCl, 0.5 mM carboxyfluorescein, 1 mM dithiothreitol, and 0.5 mM PMSF). The suspension was incubated for 20 minutes at room temperature. Proteoliposomes or liposomes were collected by centrifugation for 1 hour at 123000×g in a Beckman Type 42.1 rotor at 4° C. The pellet was resuspended in 8 ml of buffer A or B and then centrifuged for 1 hour at 152000×g in a Beckman Type 50 Ti rotor. Proteoliposomes or liposomes were resuspended in 300 μl of buffer A or B and stored at 4° C. for 16-24 hours. Typically 50% (54±6%, n=5) of the AQP1 protein and 70% of the phospholipid were recovered in proteoliposomes. The lipid to protein ratio was in the range of 120:1 to 219:1. […] Protein and phospholipid were measured as described by Ambudkar & Maloney (J. Biol. Chem., 1986, 261:10079-10086).
Permeability measurements. Membrane permeability measurements (Pf) were measured by exposing AQP1 proteoliposomes or control liposomes to an osmotic gradient by rapid mixing with an equal volume of another solution containing buffer A plus sufficient sucrose to increase osmolality in the mixed solutions to a value 120% of that in the original solution. This was performed with a stopped-flow fluorometer (SF.17MV, Applied Photophysics, Leatherhead, U.K.) with a measured dead time of 0.7 ms. […] Extravesicular carboxyfluorescein fluorescence was completely quenched using anti-fluorescein antibody (Harris et al., 1990, Am. J. Physiol. 259:F366-F371). Within the range of osmolalities used in these experiments, the vesicles acted as perfect osmometers, and relative volume (absolute volume divided by initial volume) was linearly related to relative fluorescence (absolute fluorescence divided by initial fluorescence). […]

[2] = target: T2, AQP5 (Rattus norvegicus, UniProt P47864); assay: Xenopus oocyte swelling assay, AQP5 (salivary) cRNA-injected oocytes (Example 11); format: cell-based
T2 construct: the entire open reading frame of the salivary cDNA; expressed in transfected cells; host or cells: Xenopus oocytes injected with cRNA from expression construct pXβG
T2 sequence (P47864 whole entry): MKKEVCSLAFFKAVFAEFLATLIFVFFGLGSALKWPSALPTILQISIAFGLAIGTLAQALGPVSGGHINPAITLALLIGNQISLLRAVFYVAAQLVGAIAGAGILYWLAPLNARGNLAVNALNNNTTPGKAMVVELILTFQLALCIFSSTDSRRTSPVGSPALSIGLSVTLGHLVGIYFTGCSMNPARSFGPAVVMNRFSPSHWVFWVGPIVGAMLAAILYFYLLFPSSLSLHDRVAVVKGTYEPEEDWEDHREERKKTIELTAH
Protocol: Functional Expression in Oocytes-A 1-kb BamHI fragment containing the 5'untranslated sequence and the entire open reading frame of the salivary cDNA was blunt-end-ligated into the BglII site of the Xenopus expression construct pXβG, which contains the HindIII-Pst insert of pSP64T in pBS II KS (Preston et al., 1992, Science, 256:385-387). Capped cRNA was synthesized in vitro after digestion with Xbal (Preston et al., 1993). Defolliculated stage V-VI Xenopus oocytes were injected with 50 nl of water or up to 5 ng of sample cRNAs and incubated for 3 days at 18° C. in 200 mosM modified Barth's buffer. The oocytes were transferred to 70 mosM modified Barth's buffer at 21° C.; oocyte swelling was monitored by videomicroscopy, and the coefficient of osmotic water permeability (Pf) was determined (Preston et al., 1992, 1993). Uptake of [^14 C]urea or [^14 C]glycerol was measured by incubating oocytes in 200 mosM Barth's buffer for 10-20 min at 21° C. followed by washing and SDS solubilization. No increase in ion conductance was found when control oocytes were compared to RNA-injected oocytes by two electrode voltage clamps (Preston et al., 1992). […]

[3] = tested on: Red cell water channels; conditions: cited from earlier work

| reversal of inhibition by mercurial reagents ([1]; 5 mM β-mercaptoethanol after pCMBS or HgCl2) | restoration of Pf of AQP5-expressing oocytes after HgCl2 ([2]; 5 mM β-mercaptoethanol 30 min after 1 mM HgCl2) | SMILES | restoration of the membrane water channel after HgCl2 ([3]; 5 mM β-mercaptoethanol) | Pf after mercurial treatment ([1]; CHIP28 proteoliposomes, 1 mM HgCl2, 3 minutes at 37° C.) | time to complete inhibition of Pf ([1]; CHIP28 proteoliposomes, 1 mM, 37° C.) | inhibition of Pf of AQP5-expressing oocytes ([2]; 1 mM HgCl2, 5 min) | inhibition of the red cell / membrane water channel ([3]; submillimolar concentrations) |
| --- | --- | --- | --- | --- | --- | --- | --- |
| completely reversed | restored | OCCS [β-mercaptoethanol] | may be restored | – | – | – | – |
| – | – | [Cl][Hg][Cl] [HgCl2] | – | 0.007±0.003 cm/s | ≤ 5 min | comparable reduction; also recorded: reversibly inhibited | can be inhibited by submillimolar concentrations |
